Data reported in PubChem BioAssay (NCI).
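Five concentrations, 48 hours, 96-well plates. GI50 marks 50% less growth. TGI denotes the concentration required for complete inhibition of growth.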

Tests used:
Test in all cases: NCI anticancer screen, dose series, 48 h
CAKI-1 renal = test system: CAKI-1 renal
MALME-3M melanoma = test system: MALME-3M melanoma
786-0 renal = test system: 786-0 renal
K-562 leukemia = test system: K-562 leukemia
T-47D breast = test system: T-47D breast
RPMI-8226 leukemia = test system: RPMI-8226 leukemia
U251 CNS = test system: U251 CNS
SF-268 CNS = test system: SF-268 CNS
UACC-257 melanoma = test system: UACC-257 melanoma
DU-145 prostate = test system: DU-145 prostate
MDA-N = test system: MDA-N

Compound	TGI (CAKI-1 renal) [µM]	TGI (MALME-3M melanoma) [µM]	TGI (786-0 renal) [µM]	TGI (K-562 leukemia) [µM]	TGI (T-47D breast) [µM]	TGI (RPMI-8226 leukemia) [µM]	TGI (U251 CNS) [µM]	TGI (SF-268 CNS) [µM]	TGI (UACC-257 melanoma) [µM]	TGI (DU-145 prostate) [µM]	TGI (MDA-N) [µM]	GI50 (DU-145 prostate) [µM]	GI50 (CAKI-1 renal) [µM]	GI50 (MALME-3M melanoma) [µM]	GI50 (SF-268 CNS) [µM]	GI50 (UACC-257 melanoma) [µM]	GI50 (K-562 leukemia) [µM]	GI50 (T-47D breast) [µM]	GI50 (RPMI-8226 leukemia) [µM]	GI50 (U251 CNS) [µM]
O=C(N/N=C\c1cccs1)c1ccncc1	> 100	> 100	> 100	> 100	> 100	> 100	> 100	> 100	> 100	–	–	–	–	–	–	–	–	–	–	–
CNC(=O)c1cc2nc3ccccc3c(=O)n2c2ccccc12	> 10	> 10	> 10	> 10	> 10	> 10	> 10	> 10	> 10	> 10	–	–	–	–	–	–	–	–	–	–
Cc1c(OCCCOc2ccc3c(=O)cc(-c4ccccc4)oc3c2C)ccc2c(=O)cc(-c3ccccc3)oc12	> 100	> 100	> 100	> 100	–	> 100	> 100	> 100	> 100	–	–	–	–	–	–	–	–	–	–	–
C[N+](C)(C)CCOC(=O)/C=C/c1cnc[nH]1	> 500	> 500	–	> 500	–	> 500	> 500	> 500	> 500	–	–	–	–	–	–	–	–	–	–	–
CC(C)NCC(O)c1ccc(O)c2ncccc12 (centres undefined)	> 100	–	> 100	> 100	> 100	> 100	> 100	> 100	> 100	> 100	> 100	–	–	–	–	–	–	–	–	–
COC1=CC(=O)C2C(C1=O)[C@@H]1c3ccccc3OC(C)(C)[C@H]21 (some centres undefined)	31	34	33.6	38.1	–	72.2	> 100	88.6	> 100	–	–	–	–	–	–	–	–	–	–	–
Cc1nc(N)sc1C(=O)Nc1ncn[nH]1	> 100	–	> 100	> 100	> 100	> 100	> 100	> 100	> 100	> 100	> 100	–	–	–	–	–	–	–	–	–
CCn1c(-c2ccc(OC)cc2)nc2c1C(=O)c1ccccc1C2=O	–	> 100	> 100	> 100	> 100	> 100	> 100	> 100	> 100	> 100	> 100	–	–	–	–	–	–	–	–	–
Cn1cc(-c2nc(-c3c[nH]c4ccncc34)cs2)c2ccccc21	2.85	3.23	–	–	–	–	–	3.43	3.55	3.15	–	1.74	1.48	1.69	1.79	1.96	–	–	–	–
COc1cccc2c1C(=O)c1c(O)c3c(c(O)c1C2=O)C[C@@](O)(C(=O)CN1CCOCC1)C[C@@H]3OC1CC(N)C(O)C(C)O1 (some centres undefined)	> 53.8	14.2	–	61.7	–	43.2	> 100	51.3	–	–	–	–	2.61	–	–	11.3	–	–	–	–
Nc1ncnc2c1sc(=S)n2-c1ccccc1	> 100	> 100	> 100	> 100	–	> 100	> 100	> 100	> 100	–	–	–	–	–	–	–	–	–	–	–
COc1cc(N)c2[nH]c3c(C)ccc(C)c3c2c1	> 100	> 100	> 100	> 100	–	> 100	–	> 100	> 100	–	–	–	–	–	–	–	–	–	–	–
Cc1ccc(S(=O)(=O)NC(=O)NCCc2ccc(O)c(O)c2)cc1	> 100	> 100	> 100	> 100	–	> 100	> 100	> 100	–	> 100	–	–	–	–	–	–	–	–	–	–
Cc1ccc2n(c1)cc(-c1ccc(/C=N/NC(=N)N/N=C/c3ccc(-c4cn5cc(C)ccc5[n+]4C)cc3)cc1)[n+]2C	–	–	> 100	–	> 100	> 100	> 100	43.8	> 100	–	> 100	–	–	–	–	–	–	–	–	–
C=CCNc1nc(O)c(/C=C2\C=Nc3ncccc32)s1	> 100	–	–	> 100	7.38	6.71	4.35	6.92	21.2	21.6	–	2.21	2.22	–	2.1	9.12	4.26	2.27	2.26	2.07
COc1cc(OCc2nc3cc(C(F)(F)F)ccc3nc2-c2ccccc2)cc(OC)c1OC	> 100	> 100	> 100	> 100	> 100	> 100	> 100	> 100	> 100	> 100	–	–	–	–	–	–	–	–	–	–
NC(=O)COc1c(Br)cc(Br)cc1Br	> 100	> 100	> 100	> 100	–	> 100	> 100	> 100	> 100	–	–	–	–	–	–	–	–	–	–	–
Cc1ccc(S(=O)(=O)/N=C2/N(C)CCCS2(=O)=O)cc1	> 100	–	> 100	> 100	> 100	> 100	> 100	> 100	> 100	> 100	> 100	–	–	–	–	–	–	–	–	–
CCCc1n[nH]c(=O)n1N1C(=O)C=CC1=O	> 100	> 100	> 100	> 100	> 100	–	> 100	–	> 100	> 100	> 100	–	–	–	–	–	–	–	–	–
c1ccc2[nH]c3c(N=NC4=NCCN4)c4ccccc4c-3nc2c1	–	24.1	22.4	> 100	> 100	–	19.7	> 100	36.5	> 100	20.7	–	–	–	–	–	–	–	–	–
N=c1n(CC(=O)NC23CC4CC(CC(C4)C2)C3)c2ccccc2n1CC(=O)NC12CC3CC(CC(C3)C1)C2	24.3	3.04	3.19	5.54	–	6.07	3.02	3.72	3.17	–	–	–	–	–	–	–	–	–	–	–
CCOC(=O)CCC(NC(=O)c1ccc(Nc2nc3cc(C(F)(F)F)ccc3nc2C(=O)OCC)cc1)C(=O)OCC (centres undefined)	–	–	5.5	> 100	29.7	> 100	23.3	28.6	34.5	> 100	21.3	–	–	–	–	–	–	–	–	–
